# According to patent US8846393B2, “Methods of improving stem cell homing and engraftment” (Gamida-Cell Ltd., priority 2005, dated 2014):
# Where “and” joins values, the source holds several entries; their conditions need not be identical. Identical values can stand only once.
# Legend:
# [1] = system: CD26/dipeptidylpeptidase IV; test: FACS analysis of CD26 membranal expression on CD34+ cells after short-term incubation; format: cell-based, human
# Method: Cells were obtained from umbilical cord blood after normal full-term delivery (informed consent was given). Samples were collected and frozen according to Rubinstein et al. [Rubinstein et al. Proc Natl Acad Sci USA. 1995; 92 (22):10119-10122.] within 24 h postpartum. Prior to use, the cells were thawed in Dextran buffer (Sigma, St. Louis, Mo., USA) containing 2.5% human serum albumin (HAS, Bayer Corp. Elkhart, Ind., USA), layered on a Ficoll-Hypaque gradient (1.077 g/mL; Sigma), and centrifuged at 800×g for 30 min. The mononuclear cells in the interface layer were collected and washed three times in phosphate-buffered saline (PBS, Biological Industries) containing 0.5% HSA. To purify the CD34+ cells, the mononuclear cell fraction was subjected to two cycles of immunomagnetic bead separation, using a “MiniMACS CD34 progenitor cell isolation kit” (Miltenyi Biotec Bergisch, Gladbach, Germany), according to manufacturer's instructions. The purity of the CD34+ population thus obtained was 95-98%, as evaluated by flow cytometry. Percentages of progenitor cells positive for CD26 were determined by staining of CD34+ cells with anti-CD26 FITC purchased from Becton Dickinson. […] Freshly purified CD34+ cells were FACS analyzed for the expression of CD26 (T-0) then incubated±Nicotinamide 5 mM for 20 hours (T-20 hours) and FACS analyzed again.
# NOD/SCID mice = test: Transplantation of human CD34+ cells into NOD/SCID mice, engraftment and quantification of SCID repopulating cells; format: in vivo; settings: for engraftment (mice positively engrafted): 3-weeks with cytokines+NA, 4-weeks post transplantation
# Text: FIGS. 4a-4f is a graphic representation of the effect of nicotinamide on homing and engraftment of human hematopoietic cells transplanted into NOD/SCID mice. FIGS. 4a and 4b show the percentage of human (CD45+) cells in the cell populations before transplantation: non-cultured CD34^+ cells (non-cultured, gray ovals), the entire progeny of cultures following 3-week exposure to cytokines alone (cytokines alone, closed ovals), or cytokines and nicotinamide (cytokines+NA, arrows). The percent of engraftment 4 weeks post transplantation was determined by flow cytometry of human CD45 cells in the NOD/SCID marrow (y-axis). The numbers of SCID repopulating cells (SRC) were calculated by plotting the engraftment frequencies at each dose. The resultant curves indicates the estimated frequency of SRCs within non-cultured CD34+ cells (FIG. 4c), culture with cytokines (FIG. 4d) or cytokines and nicotinamide (FIG. 4e). The number shown in each box indicates the calculated frequency of SRCs using the maximum likelihood estimator. […] Mouse bone marrow cells were dually stained with FITC-conjugated anti-CD45 (human) and antibodies to human differentiation markers as indicated. Percentages of dual positive cells are shown within each quadrant. Note the greater than 7 fold enhancement of engraftment in the nicotinamide-treated mice (FIG. 4e), as compared with mice treated with cytokines alone (FIG. 4d); FIGS. 5a-5c are a graphic representation of the effect of nicotinamide (NA) on the engraftment potential of cells cultured under differentiation-promoting conditions. Cultures were initiated with purified cord blood-derived CD34+ cells in medium supplemented with SCF, TPO, IL-6 and FLT3, 50 ng/ml each, and IL-3, 20 ng/ml, with (cytokines+NA, arrows) or without (cytokines, ovals) 10 mM nicotinamide. After 3 weeks, cells were harvested, and transplanted into SCID mice as indicated. Mice were transplanted with 1.25−5×10^4 CD34+ cells or with their progeny following expansion. Mice were sacrificed 4 weeks later and bone marrow cells were analyzed by FACS for the presence of CD34+ (human progenitor) and CD45+ (human) cells. Mice were scored as engrafted when the number of human (CD45+) cells constituted […] of the marrow population. […] FIGS. 4b and 4c show the percentage of total human (CD45+) (FIG. 4b) cells and human progenitor (CD45+CD34+) (FIG. 4c) cells in the bone marrow of mice transplanted with cells derived from culture initiated with 1.25×10^4 CD34+ cells. Note the enhanced engraftment of both total human, and human progenitor cells resulting from nicotinamide treatment. Purified CD34+ cells were cultured in culture bags (American Fluoroseal Co., Gaithersburg, Md.) at 1×10^4 cells/ml in MEMα medium, 10% fetal calf serum (FCS) and cytokines: Thrombopoietin (TPO), interleukin-6 (IL-6), FLT-3 ligand and stem cell factor (SCF), each at a final concentration of 50 ng/ml (Perpo Tech, Inc., Rocky Hill, N.J.), with or without 5 mM nicotinamide (NA) (Sigma Aldrich, Milwaukee, Wis.) and incubated at 37° C. in a humidified atmosphere of 5% CO2 in air. […] Until week 3, the cultures were topped weekly with the same volume of fresh medium and then weekly demi-depopulated. Cell counting, colony forming unit (CFUc) assay and immunophenotype analysis were performed as described hereinbelow. NOD/SCID mice were bred and maintained in sterile intra-ventilated cages (Techniplast, Bugugiatte, Italy). Eight-week-old mice were sub-lethally irradiated as described above. […]
compound,measurement,setting,value
NC(=O)c1cccnc1 [nicotinamide],reduction of CD26 expression,"[1]; 20 hours with Nicotinamide 5 mM, compared to cells without Nicotinamide and to freshly purified CD34+ cells (T-0)",2-3 fold
same,CD26+ cells (%),[1]; freshly purified CD34+ cells incubated with Nicotinamide 5 mM for 20 hours (T-20),2.7% and 6%
same,mice with human (CD45+) cells in bone marrow,"NOD/SCID mice; IL-3 supplemented cultures (SCF, TPO, IL-6, FLT3, IL-3) with 10 mM nicotinamide, 1.25×10^4 cells, 4 weeks",5 out of 5
same,engraftment of human progenitors (CD45+CD34+),"NOD/SCID mice; IL-3 supplemented cultures with 10 mM nicotinamide, 4-weeks after transplantation",observed only in mice transplanted with cells cultured with nicotinamide
same,number of SRCs relative to non-cultured cells,NOD/SCID mice; culture with nicotinamide and cytokines,14 fold
same,engraftment (mice positively engrafted),NOD/SCID mice; progeny of 3×10^3 CB CD34+ cells,50%
same,engraftment (mice positively engrafted),NOD/SCID mice; progeny of 6×10^3 CD34+ cells,100%
